Laboratory results reported in publication PMC11368658 (Molecular oral microbiology, 2024).

Experiments:
TDE1909 (CdaA) = TDE1909 (CdaA) (Treponema denticola, UniProt Q73LF5); assay type: biochemical; conditions: 150 µM ATP, 5 µM enzyme, 10 mM MnCl2, pH 7.5, 37 °C, 1-4 hr
TDE0027 (DhhA) = TDE0027 (DhhA) (Treponema denticola, UniProt Q73RQ8); test: absorbance at […] nm; assay type: biochemical; conditions: MnCl2 buffer, 30 min
TDE0087 (TrkA) = molecular target: T1, TDE0087 (TrkA) (Treponema denticola, UniProt Q73RK1); test: ELISA-type plate binding, immobilised protein, streptavidin-HRP; conditions: labelled compound (biotinylated c-di-AMP, 125 nM); 50 mM Tris-HCl pH 8.0, 750 mM KCl, 2.5 mM EDTA, 2 hr
T1 sequence (Q73RK1 1-466): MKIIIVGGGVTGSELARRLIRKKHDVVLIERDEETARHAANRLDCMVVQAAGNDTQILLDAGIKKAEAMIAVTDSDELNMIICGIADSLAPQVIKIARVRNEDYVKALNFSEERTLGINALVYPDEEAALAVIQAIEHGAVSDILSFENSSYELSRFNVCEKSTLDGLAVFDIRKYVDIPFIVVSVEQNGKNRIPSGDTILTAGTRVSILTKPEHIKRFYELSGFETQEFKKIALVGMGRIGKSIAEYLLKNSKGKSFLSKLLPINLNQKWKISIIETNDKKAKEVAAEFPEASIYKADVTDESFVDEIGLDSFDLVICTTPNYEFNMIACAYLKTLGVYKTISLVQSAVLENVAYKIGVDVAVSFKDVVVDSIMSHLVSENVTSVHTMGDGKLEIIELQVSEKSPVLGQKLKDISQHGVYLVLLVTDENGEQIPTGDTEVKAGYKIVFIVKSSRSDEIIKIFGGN

Row | SMILES | RP-HPLC of reaction products (TDE1909 (CdaA)) | absorbance at 405 nm (TDE0027 (DhhA)) | ELISA-type plate binding, immobilised protein, streptavidin-HRP (TDE0087 (TrkA))
1 | Nc1ncnc2c1ncn2[C@@H]1O[C@H](COP(=O)(O)OP(=O)(O)OP(=O)(O)O)[C@@H](O)[C@H]1O [ATP] | we observed that CdaA converted ATP to c-di-AMP while CdaR did not |  | 
2 | O=[N+]([O-])c1ccc(OP(=O)(O)Oc2ccc([N+](=O)[O-])cc2)cc1 [bis-pNPP] |  | TDE0027 hydrolyzed bis-pNPP but not pNPP | 
3 | Nc1ncnc2c1ncn2[C@@H]1O[C@@H]2COP(=O)(O)O[C@H]3[C@@H](O)[C@H](n4cnc5c(N)ncnc54)O[C@@H]3COP(=O)(O)O[C@H]2[C@H]1O [c-di-AMP] | we observed that CdaA converted ATP to c-di-AMP while CdaR did not |  | TDE0087 bound c-di-AMP similarly to the CabP control
